Measured values: patent US8871812B2, “Therapeutic regimen comprising PEG-interferon, ribavirin and VX-950 for the treatment of hepatitis” (priority 2008, dated 2014)
Marks after values point to notes of the source that are not given here.

System: genotype 1 hepatitis C
Assay: Phase 1b 14-day study of VX-950 alone or with peginterferon alfa-2a, followed by peginterferon alfa-2a/ribavirin: HCV RNA
Type: in vivo, human
From the text: This study was designed to provide information on the kinetics of HCV following treatment with VX-950 and peginterferon alfa-2a administered over 14 days.
This study randomized twenty treatment-naïve patients with chronic genotype 1 hepatitis C infection to three dosing arms (Table 6). At the completion of the 14-day study, 19 of 20 patients chose to begin peginterferon alfa-2a/ribavirin, starting within 5 days of completing the 14-day dosing period; as the other one declined to take the combination of Peg-IRN-2a and ribavirin. Clinic visits were conducted at the discretion of the investigators, after completion of the 1-week and 12-week study-mandated follow-up visits. Nineteen patients have been followed through 24 weeks after the completion of the study dosing. After discussion with the treating physicians, ten (4 in VX-950 and 6 in VX-950/peginterferon alfa-2a) patients stopped peginterferon alfa-2a/ribavirin treatment at 24 weeks.

[1] = 1-week F/U, on-study, Peg-IFN-2a/RBV, N = 7 / 8 / 4 per group

CCC[C@H](NC(=O)[C@@H]1[C@H]2CCC[C@H]2CN1C(=O)[C@@H](NC(=O)[C@@H](NC(=O)c1cnccn1)C1CCCCC1)C(C)(C)C)C(=O)C(=O)NC1CC1 [VX-950] was tested, and the “HCV RNA below limit of detection (10 IU/mL) n” value [1] was 1 n, the “HCV RNA below limit of quantitation (30 IU/mL) n” value [1] was 3 n and the “HCV RNA below limit of quantitation (30 IU/mL) n” value (12-week F/U, on-study, Peg-IFN-2a/RBV, N = 7 / 8 / 4 per group) was 6 n. The “Patients who achieved SVR” value (14 days of VX-950 optionally with Peg-INF, followed by Peg-INF/ribavirin for additional 22 or 46 weeks) was 10 of 15, the “Undetectable HCV RNA at 24-week off study peg-IFN-2a/RBV treatment N” value (N = 7 / 8 / 4 per group) was 7* N and the “Patients with undetectable HCV RNA at week 24” value (all patients who received VX-950 (alone or with peginterferon)) was 15 patients. The Antiviral activity (as a single agent or in combination with peginterferon alfa-2a, 14 days) was “rapid and profound antiviral activity”, the “Patients who achieved SVR” value (at least 14 days of VX-950 (alone or with peginterferon), treated for 24 weeks in total) was 7 of 10 and the “Patients who achieved SVR” value (at least 14 days of VX-950 (alone or with peginterferon), treated for 48 weeks in total) was 3 of 5. For the same compound, the “SVR in a patient receiving a 2 week treatment of VX-950” value (in vivo) was “SVR was achieved” and the “Undetectable HCV RNA at 12 weeks follow-up after stopping peg-IFN-2a/RBV” value (patients who stopped peg-IFN-2a/RBV at week 24) was 2 of 4.
